Measurements reported in patent US20230061736A1, “GPR119 AGONISTS” (Kallyope, Inc., priority 2019, published 2023).
Where a name gives a salt, the structure may show the parent alone.

Biological target: T1, human GPR119 (hGPR119) (Homo sapiens, UniProt Q8TDV5)
T1 construct: expressed in transfected cells
T1 sequence (Q8TDV5 1-335): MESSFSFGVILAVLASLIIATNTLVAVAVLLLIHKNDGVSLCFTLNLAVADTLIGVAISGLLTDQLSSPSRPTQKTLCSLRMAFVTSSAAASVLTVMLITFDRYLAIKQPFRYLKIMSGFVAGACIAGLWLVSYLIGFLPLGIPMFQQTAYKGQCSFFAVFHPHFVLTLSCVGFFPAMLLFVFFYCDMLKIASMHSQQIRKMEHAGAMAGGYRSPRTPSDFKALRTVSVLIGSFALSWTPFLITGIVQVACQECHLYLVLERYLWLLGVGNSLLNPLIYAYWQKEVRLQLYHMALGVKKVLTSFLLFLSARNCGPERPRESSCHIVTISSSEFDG
Experiment: cAMP accumulation assay (cAMP Gs dynamic HTRF kit)
Type: cell-based
Conditions: CHO-K1 cells stably expressing hGPR119, 4-parameter fit; for Emax: 1 h, % activity normalized to Max/Min controls; for EC50: cAMP accumulation
Summary of the method: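 Read-out is HTRF 665/620 nm ratio after 1 h detection at ambient temperature, converted to % activity against positive and negative controls, EC50 and Max activity by 4-parameter fit. Compounds were titrated onto ~10,000 thawed hGPR119-CHO-K1 cells/well for 60 min at 37° C/5% CO2.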

SMILES | Emax | EC50
COCc1cnc(N2CCC(CCCOc3cc(F)c(CC(=O)N4CC[C@@H](CNCC(O)(CO)CO)C4)c(F)c3)CC2)nc1 [Example 159, 2-[2,6-difluoro-4-[3-[1-[5-(methoxymethyl)pyrimidin-2-yl]-4-piperidyl]propoxy]phenyl]-1-[(3S)-3-[[[2,3-dihydroxy-2-(hydroxymethyl)propyl]amino]methyl]pyrrolidin-1-yl]ethanone] | 100 to 130% | ≤ 100 nM
O=C(Cc1ccc(OCCC2CC(C3CCN(c4ncc(Cl)cn4)CC3)C2)cc1F)N1CC(CNC[C@H](O)[C@@H](O)[C@H](O)[C@H](O)CO)C1 (stereo partly drawn) [Example 123, 2-[4-[2-[3-[1-(5-chloropyrimidin-2-yl)-4-piperidyl]cyclobutyl]ethoxy]-2-fluoro-phenyl]-1-[3-[[[(2S,3R,4R,5R)-2,3,4,5,6-pentahydroxyhexyl]amino]methyl]azetidin-1-yl]ethanone] | 100 to 130% | 100 to 1000 nM
O=C(Cc1c(F)cc(OCCCC2CC23CCN(c2ncc(Cl)cn2)CC3)cc1F)N1CC(CNC[C@H](O)[C@@H](O)[C@H](O)[C@H](O)CO)C1 (stereo partly drawn) [Example 143] | 100 to 130% | 100 to 1000 nM
O=C(Cc1ccc(OCCCC2CCN(c3ncc(Cl)cn3)CC2)cn1)N1CC(CNC[C@H](O)[C@@H](O)[C@H](O)[C@H](O)CO)C1 [Example 169, 2-[5-[3-[1-(5-chloropyrimidin-2-yl)-4-piperidyl]propoxy]-2-pyridyl]-1-[3-[[[(2S,3R,4R,5R)-2,3,4,5,6-pentahydroxyhexyl]amino]methyl]azetidin-1-yl]ethanone] | 100 to 130% | 1000 to 10000 nM
O=C(Cc1c(F)cc(OCCCC2CCN(c3ncc(Cl)cn3)CC2)cc1F)NC(CO)(CO)CO [Example 6, 2-[4-[3-[1-(5-chloropyrimidin-2-yl)-4-piperidyl]propoxy]-2,6-difluoro-phenyl]-N-[2-hydroxy-1,1-bis(hydroxymethyl)ethyl]acetamide] | 100 to 130% | 100 to 1000 nM
CCCc1cnc(N2CCC(CCCOc3cc(F)c(CC(=O)N4CC(CNC[C@H](O)[C@@H](O)[C@H](O)[C@H](O)CO)C4)c(F)c3)CC2)nc1 [Example 78, 2-(2,6-difluoro-4-(3-(1-(5-propylpyrimidin-2-yl)piperidin-4-yl)propoxy)phenyl)-1-(3-((((2S,3R,4R,5R)-2,3,4,5,6-pentahydroxyhexyl)amino)methyl)azetidin-1-yl)ethan-1-one] | 100 to 130% | ≤ 100 nM
COCc1cnc(N2CCC(CCCOc3cc(F)c(CC(=O)N4CC[C@H](C(=O)NC[C@H](O)[C@@H](O)[C@H](O)[C@H](O)CO)C4)c(F)c3)CC2)nc1 [Example 131, (3S)-1-[2-[2,6-difluoro-4-[3-[1-[5-(methoxymethyl)pyrimidin-2-yl]-4-piperidyl]propoxy]phenyl]acetyl]-N-[(2S,3R,4R,5R)-2,3,4,5,6-pentahydroxyhexyl]pyrrolidine-3-carboxamide] | 100 to 130% | ≤ 100 nM
COCc1cnc(N2CCC([C@H]3C[C@H]3CCOc3ccc(CC(=O)N4CC[C@@H](CNCC(CO)(CO)CO)C4)c(F)c3)CC2)nc1 [Example 163, 2-[2-fluoro-4-[2-[(1S,2R)-2-[1-[5-(methoxymethyl)pyrimidin-2-yl]-4-piperidyl]cyclopropyl]ethoxy]phenyl]-1-[(3S)-3-[[[3-hydroxy-2,2-bis(hydroxymethyl)propyl]amino]methyl]pyrrolidin-1-yl]ethanone] | 100 to 130% | ≤ 100 nM
O=C(Cc1ccc(OCCCC2CCN(c3ncc(Cl)cn3)CC2)cc1F)NCCCCCNC[C@H](O)[C@@H](O)[C@H](O)[C@H](O)CO [Example 3] | ≥ 130% | 100 to 1000 nM
O=C(Cc1ncc(OCCCC2CCN(c3ncc(Cl)cn3)CC2)cc1F)N1CC(CNC[C@H](O)[C@@H](O)[C@H](O)[C@H](O)CO)C1 [Example 170, 2-[5-[3-[1-(5-chloropyrimidin-2-yl)-4-piperidyl]propoxy]-3-fluoro-2-pyridyl]-1-[3-[[[(2S,3R,4R,5R)-2,3,4,5,6-pentahydroxyhexyl]amino]methyl]azetidin-1-yl]ethanone] | 100 to 130% | 100 to 1000 nM
O=C(NC[C@H](O)[C@@H](O)[C@H](O)[C@H](O)CO)[C@H]1CCN(C(=O)Cc2c(F)cc(OCCCC3CCN(c4ncc(Cl)cn4)CC3)cc2F)C1 [Example 128, (3S)-1-[2-[4-[3-[1-(5-chloropyrimidin-2-yl)-4-piperidyl]propoxy]-2,6-difluoro-phenyl]acetyl]-N-[(2S,3R,4R,5R)-2,3,4,5,6-pentahydroxyhexyl]pyrrolidine-3-carboxamide] | ≥ 130% | ≤ 100 nM
CCCc1cnc(N2CCC(CCCOc3cc(F)c(CC(=O)N4CC(C(=O)NCCC[N+](C)(C)C)C4)c(F)c3)CC2)nc1 [Example 40, 3-[[1-[2-[2,6-difluoro-4-[3-[1-(5-propylpyrimidin-2-yl)-4-piperidyl]propoxy]phenyl]acetyl]azetidine-3-carbonyl]amino]propyl-trimethyl-ammonium formate] | 100 to 130% | 

More lines, now with the values ahead:

Emax | EC50 | SMILES
≥ 130% | 100 to 1000 nM | O=C(Cc1ccc(OCCCC2CCN(c3ncc(Cl)cn3)CC2)cc1F)NCCCC(=O)NC(CO)(CO)CO [Example 22, 4-[[2-[4-[3-[1-(5-chloropyrimidin-2-yl)-4-piperidyl]propoxy]-2-fluoro-phenyl]acetyl]amino]-N-[2-hydroxy-1,1-bis(hydroxymethyl)ethyl]butanamide]
≥ 130% | ≤ 100 nM | O=C(CCC1CN(C(=O)Cc2ccc(OCCCC3CCN(c4ncc(Cl)cn4)CC3)cc2F)C1)NCC(O)(CO)CO [Example 35, 3-[1-[2-[4-[3-[1-(5-chloropyrimidin-2-yl)-4-piperidyl]propoxy]-2-fluoro-phenyl]acetyl]azetidin-3-yl]-N-[2,3-dihydroxy-2-(hydroxymethyl)propyl]propanamide]
100 to 130% | ≤ 100 nM | CCOc1cnc(N2CCC(CCCOc3ccc(CC(=O)N4CC[C@@H](CNCC(CO)(CO)CO)C4)c(F)c3)CC2)nc1 [Example 154, 2-[4-[3-[1-(5-ethoxypyrimidin-2-yl)-4-piperidyl]propoxy]-2-fluoro-phenyl]-1-[(3S)-3-[[[3-hydroxy-2,2-bis(hydroxymethyl)propyl]amino]methyl]pyrrolidin-1-yl]ethanone]
100 to 130% | ≤ 100 nM | O=C(Cc1ccc(OCCCC2CCN(c3ncc(Cl)cn3)CC2)cc1F)N1CC(CNC[C@H](O)[C@@H](O)[C@H](O)CO)C1 [Example 166, 2-[4-[3-[1-(5-chloropyrimidin-2-yl)-4-piperidyl]propoxy]-2-fluoro-phenyl]-1-[3-[[[(2S,3R,4R)-2,3,4,5-tetrahydroxypentyl]amino]methyl]azetidin-1-yl]ethanone]
100 to 130% | 100 to 1000 nM | O=C(Cc1ccc(OCCCC2CCN(c3ncc(Cl)cn3)CC2)cc1F)NCCC(=O)NC(CO)CO [Example 19, 3-[[2-[4-[3-[1-(5-chloropyrimidin-2-yl)-4-piperidyl]propoxy]-2-fluoro-phenyl]acetyl]amino]-N-[2-hydroxy-1-(hydroxymethyl)ethyl]propanamide]
100 to 130% | 100 to 1000 nM | O=C(NCC(O)(CO)CO)C1CCN(C(=O)Cc2ccc(OCCCC3CCN(c4ncc(Cl)cn4)CC3)cc2F)CC1 [Example 41, 1-[2-[4-[3-[1-(5-chloropyrimidin-2-yl)-4-piperidyl]propoxy]-2-fluoro-phenyl]acetyl]-N-[2,3-dihydroxy-2-(hydroxymethyl)propyl]piperidine-4-carboxamide]
≥ 130% | ≤ 100 nM | CCCc1cnc(N2CCC(CCCOc3ccc(CC(=O)N4CC(CNC(CO)(CO)CO)C4)c(F)c3)CC2)nc1 [Example 72, 1-(3-(((1,3-dihydroxy-2-(hydroxymethyl)propan-2-yl)amino)methyl)azetidin-1-yl)-2-(2-fluoro-4-(3-(1-(5-propylpyrimidin-2-yl)piperidin-4-yl)propoxy)phenyl)ethan-1-one]
100 to 130% | ≤ 100 nM | O=C(Cc1ccc(OCCCC2CCN(c3ncc(Cl)cn3)CC2)cc1F)N1CC(CO)(CO)C1 [Example 9, 1-[3,3-bis(hydroxymethyl)azetidin-1-yl]-2-[4-[3-[1-(5-chloropyrimidin-2-yl)-4-piperidyl]propoxy]-2-fluoro-phenyl]ethanone]
100 to 130% | ≤ 100 nM | O=C(Cc1ccc(OCCCC2CCN(c3ncc(Cl)cn3)CC2)cc1F)N1CC[C@H](CNC[C@H](O)[C@@H](O)[C@H](O)[C@H](O)CO)C1 [Example 100, 2-[4-[3-[1-(5-chloropyrimidin-2-yl)-4-piperidyl]propoxy]-2-fluoro-phenyl]-1-[(3R)-3-[[[(2S,3R,4R,5R)-2,3,4,5,6-pentahydroxyhexyl]amino]methyl]pyrrolidin-1-yl]ethanone]
100 to 130% | 100 to 1000 nM | O=C(Cc1ccc(OCCCC2CCN(c3ncc(Cl)cn3)CC2)cc1F)NCCCCCC(=O)NC(CO)(CO)CO [Example 18, 6-[[2-[4-[3-[1-(5-chloropyrimidin-2-yl)-4-piperidyl]propoxy]-2-fluoro-phenyl]acetyl]amino]-N-[2-hydroxy-1,1-bis(hydroxymethyl)ethyl]hexanamide]
100 to 130% | ≤ 100 nM | COCC1(C(=O)NCC(CO)(CO)CO)CCN(C(=O)Cc2ccc(OCCCC3CCN(c4ncc(Cl)cn4)CC3)cc2F)C1 (stereo not drawn) [Example 137, 1-[2-[4-[3-[1-(5-chloropyrimidin-2-yl)-4-piperidyl]propoxy]-2-fluoro-phenyl]acetyl]-N-[3-hydroxy-2,2-bis(hydroxymethyl)propyl]-3-(methoxymethyl)pyrrolidine-3-carboxamide]
